Consider eight compounds from patent US9062041B2 (Bayer Intellectual Property GmbH, priority 2011, dated 2015).

Molecules are shown by their SMILES.

Holding throughout (type): cell-based
One assay deals with T1, human PGD receptor (Homo sapiens, UniProt Q13258).
T1 sequence (Q13258 1-359): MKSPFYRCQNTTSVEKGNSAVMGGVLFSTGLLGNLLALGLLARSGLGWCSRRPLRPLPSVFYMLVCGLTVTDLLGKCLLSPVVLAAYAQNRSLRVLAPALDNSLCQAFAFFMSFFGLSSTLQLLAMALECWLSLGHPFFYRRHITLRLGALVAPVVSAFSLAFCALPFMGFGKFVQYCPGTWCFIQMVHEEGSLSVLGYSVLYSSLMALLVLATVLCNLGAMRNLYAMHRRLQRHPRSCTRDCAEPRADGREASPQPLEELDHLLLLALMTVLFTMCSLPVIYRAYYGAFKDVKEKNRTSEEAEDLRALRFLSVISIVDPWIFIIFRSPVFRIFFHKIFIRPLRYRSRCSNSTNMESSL
Put plainly: cAMP antagonism test on the human prostaglandin D receptor (HTRF cAMP detection). The conditions noted are these: selectivity towards hDP, IC50 measured by cAMP antagonism test. The gist of the method: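 Cells pre-mixed with cAMP-d2 were preincubated with compound (0.8 nM–16.5 μM) for 20 min at RT, then stimulated with 3× PGD2 solution (6 nM, in PBS-IBMX) for 30 min at RT. After lysis (20 min), HTRF read at 665/620 nm; antagonism seen as rise in FRET ratio.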
In general terms: TR-FRET usually uses a lanthanide donor and a delayed reading to cut background.

The target in assay [1] is EP4 subtype of the human PGE2 receptor (Homo sapiens, UniProt P35408). Put plainly: cAMP antagonism test on the human EP4 receptor (HTRF cAMP detection). The conditions noted are these: selectivity towards hEP4, IC50 measured by cAMP antagonism test. The gist of the method:
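Cells expressing human EP4 preincubated 20 min at RT with compound (0.8 nM–16.5 μM), then stimulated with PGE2 (0.3 nM in 3× solution, with IBMX) 60 min at RT. After lysis, cAMP measured by HTRF competition (665/620 nm ratio); antagonism seen as rise in FRET signal.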

Assay [2] concerns the target EP2 subtype of the human PGE2 receptor (Homo sapiens, UniProt P43116). Put plainly: cAMP antagonism test on the human EP2 receptor (HTRF cAMP detection). The conditions noted are these: hEP2 receptor, read-out: Antagonism hEP2 IC50. The method in brief:
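Cells expressing human EP2 preincubated 20 min at RT with compound (0.8 nM–16.5 μM), then stimulated 60 min with PGE2 (3× solution 1.5 nM) in PBS-IBMX. After 20 min lysis, cAMP measured by competitive HTRF with cAMP-d2 and Eu cryptate anti-cAMP antibody (665/620 nm ratio).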

Chain of EP2 subtype of the human PGE2 receptor (P43116 whole entry): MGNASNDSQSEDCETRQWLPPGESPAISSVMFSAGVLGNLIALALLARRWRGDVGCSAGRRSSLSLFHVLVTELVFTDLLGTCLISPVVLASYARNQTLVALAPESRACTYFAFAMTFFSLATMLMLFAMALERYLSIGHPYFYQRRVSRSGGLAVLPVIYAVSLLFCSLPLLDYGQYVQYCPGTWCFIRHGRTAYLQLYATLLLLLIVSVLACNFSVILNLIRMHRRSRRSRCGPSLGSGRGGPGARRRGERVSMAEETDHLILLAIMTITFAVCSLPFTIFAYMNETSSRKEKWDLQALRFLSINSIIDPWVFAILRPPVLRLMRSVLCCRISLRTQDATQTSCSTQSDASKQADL
Chain of EP4 subtype of the human PGE2 receptor (P35408 whole entry): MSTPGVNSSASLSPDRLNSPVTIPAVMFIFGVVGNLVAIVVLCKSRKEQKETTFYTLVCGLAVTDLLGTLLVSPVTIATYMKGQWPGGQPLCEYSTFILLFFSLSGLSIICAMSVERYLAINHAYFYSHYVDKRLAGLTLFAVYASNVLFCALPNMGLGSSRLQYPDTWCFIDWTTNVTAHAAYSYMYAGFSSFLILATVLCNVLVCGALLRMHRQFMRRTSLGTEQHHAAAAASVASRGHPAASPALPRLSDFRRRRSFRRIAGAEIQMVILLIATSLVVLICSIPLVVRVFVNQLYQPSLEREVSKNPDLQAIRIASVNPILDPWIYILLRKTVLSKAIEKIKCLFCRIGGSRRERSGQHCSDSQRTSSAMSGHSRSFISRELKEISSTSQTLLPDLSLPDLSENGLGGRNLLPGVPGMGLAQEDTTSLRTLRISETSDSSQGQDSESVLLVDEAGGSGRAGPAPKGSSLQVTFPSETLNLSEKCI

What is called IC50 is the concentration needed to halve the response being measured. For `Cc1c(C(=O)NCC(F)(F)F)ccc2nn(CC3CCN(C(=O)c4cnc(-c5ccccc5)o4)CC3)cc12` [Example 300, 4-methyl-2-({1-[(2-phenyloxazol-5-yl)carbonyl]piperidin-4-yl}methyl)-N-(2,2,2-trifluoroethyl)-2H-indazol-5-carboxamide], the “Selectivity hEP2/hDP” value on human PGD receptor was “xxx (xxx > 100)”. For the same compound, the “Selectivity hEP2/hEP4” value in assay [1] is “xxx (xxx > 100)”. Further, in assay [2], the IC50 was 0.0798 µM.
In the case of `Cc1c(C(=O)NCC(C)OCC2CC2)ccc2nn(CC3CCN(C(=O)c4ccc(Oc5ccc(F)cc5)cc4)CC3)cc12` (racemic) [Example 103, (+/−)-N-[2-(cyclo-propylmethoxy)-propyl]-2-({1-[4-(4-fluorophenoxy)-benzoyl]piperidin-4-yl}-methyl)-4-methyl-2H-indazol-5-carboxamide], the “Selectivity hEP2/hDP” value on human PGD receptor is recorded as “xx (xx: 10-100)”. Also, in assay [1], the “Selectivity hEP2/hEP4” value is reported as “xx (xx: 10-100)”. Moreover, the IC50 in assay [2] turned out to be 0.595 µM.
`COCCNC(=O)c1ccc2nn(CC3CCN(C(=O)c4ccc(Cl)cc4)CC3)cc2c1OC` [Example 262, 2-{[1-(4-chlorobenzoyl)piperidin-4-yl]methyl}-4-methoxy-N-(2-methoxyethyl)-2H-indazol-5-carboxamide]: on human PGD receptor, the “Selectivity hEP2/hDP” value was “xxx (xxx > 100)”. Also, the “Selectivity hEP2/hEP4” value in assay [1] is reported as “xxx (xxx > 100)”. The IC50 in assay [2] amounted to 0.0334 µM.
For the compound `Cc1c(C(=O)NCC2COCCO2)ccc2nn(CC3CCN(C(=O)c4ccc(Oc5ccc(C(F)(F)F)cc5)cc4)CC3)cc12` (racemic) [Example 249, (+/−)-N-(1,4-dioxan-2-ylmethyl)-4-methyl-2-[(1-{4-[4-(trifluoromethyl)phenoxy]benzoyl}piperidin-4-yl)methyl]-2H-indazol-5-carboxamide], on human PGD receptor, the “Selectivity hEP2/hDP” value is on record as “xxx (xxx > 100)”. The “Selectivity hEP2/hEP4” value in assay [1] is “xxx (xxx > 100)”. The IC50 in assay [2] was found to be 0.0112 µM.
With `COCCNC(=O)c1ccc2nn(CC3CCN(C(=O)c4ccc(C)cc4F)CC3)cc2c1C` [Example 9, 2-{[1-(2-fluoro-4-methylbenzoyl)piperidin-4-yl]methyl}-N-(2-methoxyethyl)-4-methyl-2H-indazol-5-carboxamide], on human PGD receptor, the “Selectivity hEP2/hDP” value is on record as “xxx (xxx > 100)”. Moreover, the “Selectivity hEP2/hEP4” value in assay [1] is recorded as “xxx (xxx > 100)”. Moreover, the IC50 in assay [2] came out at 0.0172 µM.
For `COCCNC(=O)c1ccc2nn(CC3CCN(C(=O)c4ccc(Oc5ccc(C(N)=O)cc5)cc4)CC3)cc2c1C` [Example 30, 2-({1-[4-(4-carbamoylphenoxy)-benzoyl]piperidin-4-yl}methyl)-N-(2-methoxyethyl)-4-methyl-2H-indazol-5-carboxamide], the “Selectivity hEP2/hDP” value at human PGD receptor is reported as “xxx (xxx > 100)”. The “Selectivity hEP2/hEP4” value in assay [1] is recorded as “xxx (xxx > 100)”. Also, in assay [2], the 50% inhibitory concentration (IC50) was 0.0643 µM.
`Cc1c(C(=O)NCC(F)(F)F)ccc2nn(CC3CCN(C(=O)c4ccc(-c5cnc(C(F)(F)F)nc5)cc4)CC3)cc12` [Example 328, 4-methyl-N-(2,2,2-trifluoroethyl)-2-[(1-{4-[2-(trifluoromethyl)pyrimidin-5-yl]-benzoyl}piperidin-4-yl)methyl]-2H-indazol-5-carboxamide]: the “Selectivity hEP2/hDP” value on human PGD receptor was “xx (xx: 10-100)”. Further, in assay [1], the “Selectivity hEP2/hEP4” value is recorded as “xx (xx: 10-100)”. Moreover, the IC50 in assay [2] stood at 0.256 µM.
For `COCCNC(=O)c1ccc2nn(CC3CCN(C(=O)c4ccc(-c5ccc(F)cc5Cl)cc4)CC3)cc2c1C` [Example 384, 2-({1-[(2′-chloro-4′-fluorobiphenyl-4-yl)carbonyl]piperidin-4-yl}methyl)-N-(2-methoxyethyl)-4-methyl-2H-indazol-5-carboxamide], the “Selectivity hEP2/hDP” value at human PGD receptor is reported as “xxx (xxx > 100)”. In assay [1], the “Selectivity hEP2/hEP4” value is “xxx (xxx > 100)”. The concentration for half-maximal inhibition (IC50) in assay [2] is 0.00395 µM.
